Measurements as given in ChEMBL document CHEMBL3632539, “Identification of Bidentate Salicylic Acid Inhibitors of PTP1B” (ACS Med Chem Lett, 2015).
The source made the active and inactive calls. No cut-off for these calls is given here.

Columns and labels:
[1] = test system: CHO; experiment: Cytotoxicity against CHO cells expressing human insulin receptor at 0.78 to 50 uM after 72 hrs by cell-titer blue assay; assay type: cell-based, Cricetulus griseus; details: chinese hamster
[2] = test system: CHO; experiment: Inhibition of PTP1B in CHO cells assessed as increase in phosphorylation of transfected human insulin receptor by western blot analysis; assay type: cell-based; details: Cricetulus griseus
[3] = target: T1, Tyrosine-protein phosphatase non-receptor type 1 (Homo sapiens, UniProt P18031); experiment: Competitive inhibition of GST-tagged PTP1B (unknown origin) by plate reader analysis using DiFMUP as substrate
T1 sequence (P18031 whole entry): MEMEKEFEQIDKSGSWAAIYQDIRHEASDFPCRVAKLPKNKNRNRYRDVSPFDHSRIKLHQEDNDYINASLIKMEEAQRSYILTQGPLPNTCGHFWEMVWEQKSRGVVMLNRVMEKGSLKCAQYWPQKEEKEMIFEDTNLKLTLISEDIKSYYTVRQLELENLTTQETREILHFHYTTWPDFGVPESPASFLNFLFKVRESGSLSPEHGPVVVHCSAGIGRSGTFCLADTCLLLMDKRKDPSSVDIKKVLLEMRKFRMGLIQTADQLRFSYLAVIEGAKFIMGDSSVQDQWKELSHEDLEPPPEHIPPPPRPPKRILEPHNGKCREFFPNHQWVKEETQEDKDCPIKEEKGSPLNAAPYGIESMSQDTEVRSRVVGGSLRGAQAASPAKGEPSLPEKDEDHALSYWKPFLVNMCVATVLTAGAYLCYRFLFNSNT

[4] = target: T2, Tyrosine-protein phosphatase non-receptor type 2 (Homo sapiens) (UniProt P17706); experiment: Inhibition of GST-tagged TCPTP (unknown origin) at 10 uM by plate reader analysis using DiFMUP as substrate
T2 sequence (whole entry): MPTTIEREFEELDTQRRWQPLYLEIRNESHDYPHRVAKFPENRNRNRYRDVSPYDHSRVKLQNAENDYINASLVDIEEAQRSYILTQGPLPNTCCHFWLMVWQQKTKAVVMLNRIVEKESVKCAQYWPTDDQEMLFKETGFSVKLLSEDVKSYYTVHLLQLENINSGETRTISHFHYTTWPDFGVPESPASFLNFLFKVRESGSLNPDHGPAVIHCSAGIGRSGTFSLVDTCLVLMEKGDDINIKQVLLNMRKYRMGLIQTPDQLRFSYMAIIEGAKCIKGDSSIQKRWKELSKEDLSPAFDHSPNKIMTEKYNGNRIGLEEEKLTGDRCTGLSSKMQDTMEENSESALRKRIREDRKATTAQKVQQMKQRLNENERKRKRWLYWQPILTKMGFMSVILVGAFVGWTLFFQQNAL

[5] = target: T3, Tyrosine-protein phosphatase non-receptor type 1 (Homo sapiens) (UniProt P18031); experiment: Inhibition of GST-tagged PTP1B (unknown origin) at 10 uM by plate reader analysis using DiFMUP as substrate
T3 sequence (whole entry): T1 sequence (P18031 whole entry)

[6] = target: T4, Receptor-type tyrosine-protein phosphatase S (Homo sapiens, UniProt Q13332); experiment: Inhibition of GST-tagged PTP-sigma (unknown origin) at 10 uM by plate reader analysis using DiFMUP as substrate
T4 sequence (Q13332 whole entry): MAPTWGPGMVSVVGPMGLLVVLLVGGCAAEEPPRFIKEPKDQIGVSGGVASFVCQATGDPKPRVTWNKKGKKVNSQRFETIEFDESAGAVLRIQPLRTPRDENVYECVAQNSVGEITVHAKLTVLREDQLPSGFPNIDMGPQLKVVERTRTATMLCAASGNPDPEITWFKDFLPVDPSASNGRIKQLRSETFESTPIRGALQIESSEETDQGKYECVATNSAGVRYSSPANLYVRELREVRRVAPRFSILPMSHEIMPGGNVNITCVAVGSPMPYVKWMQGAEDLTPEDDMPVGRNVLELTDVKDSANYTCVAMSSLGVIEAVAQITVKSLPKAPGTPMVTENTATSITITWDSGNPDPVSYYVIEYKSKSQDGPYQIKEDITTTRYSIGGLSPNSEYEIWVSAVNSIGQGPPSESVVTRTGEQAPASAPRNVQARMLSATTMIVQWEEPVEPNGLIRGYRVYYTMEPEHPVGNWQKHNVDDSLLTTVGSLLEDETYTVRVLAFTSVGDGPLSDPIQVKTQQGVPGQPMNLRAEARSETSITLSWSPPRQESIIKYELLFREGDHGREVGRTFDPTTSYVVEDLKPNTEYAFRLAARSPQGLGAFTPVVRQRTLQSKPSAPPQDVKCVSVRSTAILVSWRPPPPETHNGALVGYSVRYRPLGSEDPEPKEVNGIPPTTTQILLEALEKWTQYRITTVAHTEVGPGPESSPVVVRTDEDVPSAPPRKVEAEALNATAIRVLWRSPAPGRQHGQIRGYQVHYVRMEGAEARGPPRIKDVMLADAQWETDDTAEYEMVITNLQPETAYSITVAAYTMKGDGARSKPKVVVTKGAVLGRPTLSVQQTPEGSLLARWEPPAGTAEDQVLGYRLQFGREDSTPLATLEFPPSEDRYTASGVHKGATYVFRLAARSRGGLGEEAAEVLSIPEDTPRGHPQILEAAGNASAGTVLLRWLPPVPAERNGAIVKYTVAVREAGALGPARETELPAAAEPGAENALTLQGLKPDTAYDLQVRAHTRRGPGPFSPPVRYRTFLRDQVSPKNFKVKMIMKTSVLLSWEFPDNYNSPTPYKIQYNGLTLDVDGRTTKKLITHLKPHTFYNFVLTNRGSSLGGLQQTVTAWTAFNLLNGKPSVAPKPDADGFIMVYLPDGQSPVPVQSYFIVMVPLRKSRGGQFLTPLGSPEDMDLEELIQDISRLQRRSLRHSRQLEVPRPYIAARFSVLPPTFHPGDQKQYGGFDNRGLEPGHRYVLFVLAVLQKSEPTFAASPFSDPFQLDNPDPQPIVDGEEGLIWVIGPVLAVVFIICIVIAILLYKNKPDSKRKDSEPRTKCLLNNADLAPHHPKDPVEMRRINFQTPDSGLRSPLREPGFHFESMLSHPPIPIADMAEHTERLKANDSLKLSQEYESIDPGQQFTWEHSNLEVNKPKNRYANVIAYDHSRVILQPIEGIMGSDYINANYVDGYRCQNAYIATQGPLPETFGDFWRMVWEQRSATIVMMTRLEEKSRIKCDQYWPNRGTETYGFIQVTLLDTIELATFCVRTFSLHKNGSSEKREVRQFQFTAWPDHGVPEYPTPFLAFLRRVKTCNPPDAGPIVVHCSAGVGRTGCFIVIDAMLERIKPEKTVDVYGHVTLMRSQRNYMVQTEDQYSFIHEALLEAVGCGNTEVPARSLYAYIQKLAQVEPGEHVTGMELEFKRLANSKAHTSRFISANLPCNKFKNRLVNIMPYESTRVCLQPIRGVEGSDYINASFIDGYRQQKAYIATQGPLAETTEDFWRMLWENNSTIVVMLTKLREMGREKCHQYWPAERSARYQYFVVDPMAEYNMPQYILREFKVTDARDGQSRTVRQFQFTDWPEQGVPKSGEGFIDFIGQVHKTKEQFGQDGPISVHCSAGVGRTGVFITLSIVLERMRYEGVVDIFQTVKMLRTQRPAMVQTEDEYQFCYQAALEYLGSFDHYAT

[7] = species on record: Homo sapiens; experiment: Inhibition of GST-tagged PRL2 A/S mutant (unknown origin) at 10 uM by plate reader analysis using DiFMUP as substrate
[8] = target: Receptor-type tyrosine-protein phosphatase F (Homo sapiens) (UniProt P10586); experiment: Inhibition of GST-tagged LAR (unknown origin) at 10 uM by plate reader analysis using DiFMUP as substrate
Chain of Receptor-type tyrosine-protein phosphatase F (Homo sapiens) (P10586 whole entry): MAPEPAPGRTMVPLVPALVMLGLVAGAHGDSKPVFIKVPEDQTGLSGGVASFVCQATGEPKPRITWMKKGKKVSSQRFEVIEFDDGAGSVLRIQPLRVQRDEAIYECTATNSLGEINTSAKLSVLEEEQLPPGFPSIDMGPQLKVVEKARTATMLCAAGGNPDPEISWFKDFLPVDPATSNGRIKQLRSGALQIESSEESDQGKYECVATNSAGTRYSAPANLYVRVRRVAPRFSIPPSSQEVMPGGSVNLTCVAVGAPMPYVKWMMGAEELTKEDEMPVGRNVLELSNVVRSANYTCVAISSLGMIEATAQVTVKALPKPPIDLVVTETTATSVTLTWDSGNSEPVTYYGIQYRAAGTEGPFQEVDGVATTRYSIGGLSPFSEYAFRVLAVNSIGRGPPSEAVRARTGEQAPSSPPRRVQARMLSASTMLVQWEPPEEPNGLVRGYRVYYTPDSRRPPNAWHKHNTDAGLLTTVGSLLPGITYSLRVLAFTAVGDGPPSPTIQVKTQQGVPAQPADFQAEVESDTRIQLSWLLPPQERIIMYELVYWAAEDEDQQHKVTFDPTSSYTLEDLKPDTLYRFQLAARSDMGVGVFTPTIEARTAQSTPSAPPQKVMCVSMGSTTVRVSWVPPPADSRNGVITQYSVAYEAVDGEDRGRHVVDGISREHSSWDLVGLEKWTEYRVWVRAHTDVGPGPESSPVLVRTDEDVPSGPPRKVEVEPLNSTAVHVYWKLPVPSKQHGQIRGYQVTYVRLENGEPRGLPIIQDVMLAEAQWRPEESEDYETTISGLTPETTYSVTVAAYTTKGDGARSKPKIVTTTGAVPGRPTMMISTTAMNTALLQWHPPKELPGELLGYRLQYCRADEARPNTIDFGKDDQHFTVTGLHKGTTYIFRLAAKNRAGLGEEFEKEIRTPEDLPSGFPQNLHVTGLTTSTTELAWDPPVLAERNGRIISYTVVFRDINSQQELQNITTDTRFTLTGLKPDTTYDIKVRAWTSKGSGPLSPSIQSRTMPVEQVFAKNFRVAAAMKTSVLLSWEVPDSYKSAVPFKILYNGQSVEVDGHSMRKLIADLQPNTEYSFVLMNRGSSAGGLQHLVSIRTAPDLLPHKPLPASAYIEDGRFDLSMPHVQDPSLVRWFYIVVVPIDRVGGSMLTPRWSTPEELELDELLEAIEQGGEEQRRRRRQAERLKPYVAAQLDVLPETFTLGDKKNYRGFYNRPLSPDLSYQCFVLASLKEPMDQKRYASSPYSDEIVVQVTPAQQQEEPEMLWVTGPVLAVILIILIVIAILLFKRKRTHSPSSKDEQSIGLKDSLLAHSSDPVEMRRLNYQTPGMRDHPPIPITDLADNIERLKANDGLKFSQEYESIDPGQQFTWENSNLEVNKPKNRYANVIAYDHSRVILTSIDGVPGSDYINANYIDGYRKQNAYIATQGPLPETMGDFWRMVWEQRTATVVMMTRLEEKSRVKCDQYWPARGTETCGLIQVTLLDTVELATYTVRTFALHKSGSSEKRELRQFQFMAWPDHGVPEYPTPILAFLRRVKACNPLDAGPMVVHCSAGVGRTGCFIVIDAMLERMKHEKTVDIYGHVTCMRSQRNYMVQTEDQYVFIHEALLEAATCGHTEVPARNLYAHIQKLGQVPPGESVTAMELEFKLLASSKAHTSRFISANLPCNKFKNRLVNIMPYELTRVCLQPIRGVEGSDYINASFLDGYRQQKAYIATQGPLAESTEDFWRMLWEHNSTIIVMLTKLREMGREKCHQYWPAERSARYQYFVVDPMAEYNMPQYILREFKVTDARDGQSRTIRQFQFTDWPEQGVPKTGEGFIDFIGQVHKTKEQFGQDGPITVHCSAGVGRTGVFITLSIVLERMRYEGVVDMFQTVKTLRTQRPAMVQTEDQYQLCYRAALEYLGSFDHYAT

[9] = target: T5, Dual specificity protein phosphatase 22 (Homo sapiens) (UniProt Q9NRW4); experiment: Inhibition of GST-tagged MKPX (unknown origin) at 10 uM by plate reader analysis using DiFMUP as substrate
T5 sequence (whole entry): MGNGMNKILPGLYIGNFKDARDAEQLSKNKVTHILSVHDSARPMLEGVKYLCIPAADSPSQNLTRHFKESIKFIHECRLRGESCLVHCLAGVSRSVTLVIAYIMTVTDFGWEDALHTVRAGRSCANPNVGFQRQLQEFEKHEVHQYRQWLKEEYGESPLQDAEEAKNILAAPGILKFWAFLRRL

[10] = target: T6, Receptor-type tyrosine-protein phosphatase C (Homo sapiens) (UniProt P08575); experiment: Inhibition of GST-tagged CD45 D1D2 domain (unknown origin) at 10 uM by plate reader analysis using DiFMUP as substrate
T6 sequence (whole entry): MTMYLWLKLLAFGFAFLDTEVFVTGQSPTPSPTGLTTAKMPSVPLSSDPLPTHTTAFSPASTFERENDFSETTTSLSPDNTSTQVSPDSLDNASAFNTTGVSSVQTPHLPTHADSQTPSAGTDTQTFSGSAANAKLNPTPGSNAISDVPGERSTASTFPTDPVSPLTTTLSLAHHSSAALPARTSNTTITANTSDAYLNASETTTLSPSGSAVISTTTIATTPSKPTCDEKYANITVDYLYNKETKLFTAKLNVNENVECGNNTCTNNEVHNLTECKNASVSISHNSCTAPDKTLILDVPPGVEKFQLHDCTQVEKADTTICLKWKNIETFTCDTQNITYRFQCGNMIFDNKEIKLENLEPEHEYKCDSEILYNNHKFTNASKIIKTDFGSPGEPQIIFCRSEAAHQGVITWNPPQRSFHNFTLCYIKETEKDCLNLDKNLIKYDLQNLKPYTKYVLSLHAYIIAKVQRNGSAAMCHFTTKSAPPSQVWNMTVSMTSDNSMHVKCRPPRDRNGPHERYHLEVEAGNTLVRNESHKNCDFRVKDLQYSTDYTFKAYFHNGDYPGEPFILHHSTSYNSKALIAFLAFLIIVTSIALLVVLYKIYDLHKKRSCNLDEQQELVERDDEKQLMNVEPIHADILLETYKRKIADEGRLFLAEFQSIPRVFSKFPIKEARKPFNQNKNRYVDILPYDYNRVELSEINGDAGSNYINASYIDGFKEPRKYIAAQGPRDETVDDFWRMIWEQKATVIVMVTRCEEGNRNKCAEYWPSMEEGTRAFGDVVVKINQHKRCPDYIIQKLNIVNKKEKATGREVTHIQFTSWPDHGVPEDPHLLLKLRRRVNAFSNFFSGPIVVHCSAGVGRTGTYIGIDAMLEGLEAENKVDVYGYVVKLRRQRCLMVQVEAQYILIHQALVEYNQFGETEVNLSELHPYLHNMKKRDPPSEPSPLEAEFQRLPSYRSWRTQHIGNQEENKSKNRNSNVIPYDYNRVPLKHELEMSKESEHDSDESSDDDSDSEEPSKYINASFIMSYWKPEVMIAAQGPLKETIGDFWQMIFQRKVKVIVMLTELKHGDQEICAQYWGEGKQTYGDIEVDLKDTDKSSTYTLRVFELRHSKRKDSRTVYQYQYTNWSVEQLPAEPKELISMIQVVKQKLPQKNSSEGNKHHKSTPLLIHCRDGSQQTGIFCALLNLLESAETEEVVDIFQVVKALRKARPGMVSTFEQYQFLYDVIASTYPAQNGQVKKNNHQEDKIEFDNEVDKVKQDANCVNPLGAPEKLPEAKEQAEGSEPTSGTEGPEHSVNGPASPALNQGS

[11] = target: T1, Tyrosine-protein phosphatase non-receptor type 1; experiment: Inhibition of GST-tagged PTP1B (unknown origin) by plate reader analysis using DiFMUP as substrate
[12] = target: T4, Receptor-type tyrosine-protein phosphatase S; experiment: Inhibition of GST-tagged PTP-sigma (unknown origin) by plate reader analysis using DiFMUP as substrate
[13] = species on record: Homo sapiens; experiment: Selectivity ratio, ratio of IC50 for PTP sigma (unknown origin) to IC50 for PTP1B (unknown origin)
[14] = test system: CHO; experiment: Inhibition of PTP1B in CHO cells assessed as increase in phosphorylation of transfected human insulin receptor at 50 uM by western blot analysis; assay type: cell-based; details: Cricetulus griseus
[15] = target: Receptor-type tyrosine-protein phosphatase F (Homo sapiens) (UniProt P10586); experiment: Inhibition of GST-tagged LAR (unknown origin) by plate reader analysis using DiFMUP as substrate
[16] = species on record: Homo sapiens; experiment: Inhibition of GST-tagged PRL2 A/S mutant (unknown origin) by plate reader analysis using DiFMUP as substrate
[17] = target: T5, Dual specificity protein phosphatase 22 (Homo sapiens); experiment: Inhibition of GST-tagged MKPX (unknown origin) by plate reader analysis using DiFMUP as substrate
[18] = target: T7, Papain (Carica papaya) (UniProt P00784); experiment: Inhibition of papaya papain by plate reader analysis using Z-Phe-Arg-pNA substrate
T7 sequence (whole entry): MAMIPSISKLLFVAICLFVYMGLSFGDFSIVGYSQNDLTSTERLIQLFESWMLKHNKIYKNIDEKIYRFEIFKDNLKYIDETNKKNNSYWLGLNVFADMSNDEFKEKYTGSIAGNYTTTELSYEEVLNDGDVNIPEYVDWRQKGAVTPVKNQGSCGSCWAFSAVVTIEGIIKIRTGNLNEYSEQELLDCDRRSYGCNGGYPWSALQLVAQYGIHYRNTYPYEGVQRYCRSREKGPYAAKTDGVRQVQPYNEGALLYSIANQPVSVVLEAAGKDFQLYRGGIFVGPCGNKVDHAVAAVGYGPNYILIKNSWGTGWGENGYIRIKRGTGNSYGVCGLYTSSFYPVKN

[19] = species on record: Homo sapiens; experiment: Selectivity ratio, ratio of IC50 for PTP1B (unknown origin) to IC50 for PTP sigma (unknown origin)

Compound | Ki [3] | inhibition [4] | inhibition [5] | inhibition [6] | inhibition [7] | inhibition [8] | inhibition [9] | inhibition [10] | IC50 [11] | IC50 [12] | Ratio IC50 [13] | inhibition [15] | inhibition [16] | inhibition [17] | inhibition [18] | Ratio IC50 [19] | Activity [1] | Activity [2] | Activity [14]
O=C(CCCn1cc(CN(CC(=O)N(Cc2ccc(C3CCCCC3)cc2)c2ccc(C(=O)O)c(O)c2)S(=O)(=O)c2cccc3cccnc23)nn1)Nc1ccc(C(=O)O)c(O)c1 |  | > 90% | > 90% | > 90% | inactive | inactive | inactive | inactive | 1.7 µM | 7.9 µM | 4 |  |  |  |  |  | Non-toxic | Dose-dependent effect | 
VANADATE |  |  |  |  |  |  |  |  |  |  |  |  |  |  |  |  |  |  | Active
O=C(CCCCCn1cc(CN(CC(=O)N(Cc2ccc(C3CCCCC3)cc2)c2ccc(C(=O)O)c(O)c2)S(=O)(=O)c2cccc3cccnc23)nn1)Nc1ccc(C(=O)O)c(O)c1 |  | > 90% | > 90% | > 90% | inactive | inactive | inactive | inactive | 2.4 µM | 0.9 µM |  |  |  |  |  |  | Non-toxic | Dose-dependent effect | 
O=C(CCCCn1cc(CN(CC(=O)N(Cc2ccc(C3CCCCC3)cc2)c2ccc(C(=O)O)c(O)c2)S(=O)(=O)c2cccc3cccnc23)nn1)Nc1ccc(C(=O)O)c(O)c1 |  | > 90% | > 90% | > 90% | inactive | inactive | inactive | inactive | 2.3 µM | 0.6 µM |  |  |  |  |  | 4 |  |  | 

The next lines start with results.

Ki [3] | inhibition [4] | inhibition [5] | inhibition [6] | inhibition [7] | inhibition [8] | inhibition [9] | inhibition [10] | IC50 [11] | IC50 [12] | Ratio IC50 [13] | inhibition [15] | inhibition [16] | inhibition [17] | inhibition [18] | Ratio IC50 [19] | Compound | Activity [1] | Activity [2] | Activity [14]
1.83 µM | > 90% | > 90% | > 90% | inactive | inactive | inactive | inactive | 3.6 µM | 15.6 µM |  |  |  |  |  |  | O=C(Cn1cc(CN(CC(=O)N(Cc2ccc(C3CCCCC3)cc2)c2ccc(C(=O)O)c(O)c2)S(=O)(=O)c2cccc3cccnc23)nn1)Nc1ccc(C(=O)O)c(O)c1 | Non-toxic | Dose-dependent effect | 
 | > 90% | > 90% | > 90% | inactive | inactive | inactive | inactive | 6.1 µM | 11.8 µM |  |  |  |  |  |  | O=C(CCn1cc(CN(CC(=O)N(Cc2ccc(C3CCCCC3)cc2)c2ccc(C(=O)O)c(O)c2)S(=O)(=O)c2cccc3cccnc23)nn1)Nc1ccc(C(=O)O)c(O)c1 |  |  | 
5.66 µM |  |  |  |  |  |  |  |  |  |  | inactive | inactive | inactive | inactive |  | CN(CC(=O)N(Cc1ccc(C2CCCCC2)cc1)c1ccc(C(=O)O)c(O)c1)S(=O)(=O)c1cccc2cccnc12 |  |  | 
